In patent US20240417435A1, “DEFENSIN-DERIVED PEPTIDE WITH ANTIBACTERIAL ACTIVITY ALSO AGAINST MULTI-ANTIBIOTIC-RESISTANT BACTERIA” (priority 2021, published 2024):

Legend:
Test in all cases: Cell migration assay in Boyden chambers
Format in all cases: cell-based
HUVEC endothelial cells = details: endothelial cells (HUVEC); 10 nM; 4 h
Procedure: (§1) Cell migration assays were conducted as previously described (Bifulco K et al., Mol Cancer There 2013; 2:1981-93), using Boyden chambers and polyvinylpyrrolidone-free polycarbonate filters with 8 μm pores inserted between a lower and upper compartment. Briefly, the cell suspension (1×10^5 viable cells/mL of serum-free medium) was seeded in each upper chamber. The lower chambers were filled with DMEM only, DMEM containing 10 nM N-formyl-methionyl-leucylphenylalanine peptide (fMLF), as positive control, or increasing peptide γ2 concentration. Incubation was conducted for 4 h at 37° C. in air humidified with 5% CO2. At the end of the assay, the cells on the lower surface of the filter were fixed with ethanol and stained with haematoxylin, and 10 random fields/filter were counted with a 200× magnification. The extent of cell migration was expressed as a percentage of baseline cell migration evaluated in the absence of chemo-attractants, taken as 100% (CTRL).

HT-1080 cells = details: 10 nM, 4 h
Procedure: as §1

A549 cells = details: 10 nM, 4 h
Procedure: as §1

Substance: N-formyl-methionyl-leucylphenylalanine peptide [fMLF, reference compound]
- cell migration, % of the baseline cell migration (HUVEC endothelial cells): 166%
- cell migration, % of the baseline cell migration (HT-1080 cells): 167%
- cell migration, % of the baseline cell migration (A549 cells): 153%
